Laboratory results reported in patent US20190374563A1, “TREATMENT OF KLEBSIELLA PNEUMONIAE INFECTIONS WITH ANTIBACTERIAL AMINOGLYCOSIDE COMPOUNDS” (Achaogen, Inc., priority 2009, published 2019).
Converted amounts (≈) assume the structure as drawn. Read-outs that look alike come from different tables or passages of the source.

Columns and labels:
E. coli ATCC 25922 = test: murine septicemia model of infection; type: in vivo; conditions: mice, single SC or IV dose 1 hour after IP challenge, mortality for 7 days; ED50 values are mg/kg
Method: (§1) Two models were run on each compound, using E. coli and P. aeruginosa QC bacterial strains. Both studies employed the same design. […] At 1 hour after bacterial challenge, the mice received a single SC or IV dose of vehicle or test substance to assess in vivo anti-infective activity. Mortality was recorded once daily for 7 days after bacterial inoculation.

P. aeruginosa ATCC 27853 = test: murine septicemia model of infection; type: in vivo; conditions: mice, single SC or IV dose 1 hour after IP challenge, mortality for 7 days; ED50 values are mg/kg
Method: as §1

[1] = test system: E. coli ATCC 25922 (AECO001); test: MIC assay, CLSI broth microdilution; type: cell-based; parameters: MIC AECO001: unit not given here; conditions: Table 3; E. coli ATCC25922
Method in brief: (§2)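 CLSI M7-A7 broth microdilution in Mueller Hinton Broth using two-fold compound serial dilutions. Inoculum was prepared from the previous day's agar colonies at a final 5×10^5 CFU/mL. Plates were incubated at 35° C for 20 hours in ambient air.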

[2] = test system: A. calcoaceticus AACA005, AAC(6′)-I; test: MIC assay, aminoglycoside resistant strain; type: cell-based; parameters: unit not given beside the values; conditions: Table 3; A. calcoaceticus AAC(6′)-I
Method: (§3) Minimum inhibitory concentrations (MIC) were determined by reference Clinical and Laboratory Standards Institute (CLSI) broth microdilution methods per M7-A7 [2006]. Quality control ranges utilizing E. coli ATCC 25922, P. aeruginosa ATCC 27853 and S. aureus ATCC 29213, and interpretive criteria for comparator agents were as published in CLSI M100-S17 [2007]. Briefly, serial two-fold dilutions of the test compounds were prepared at 2× concentration in Mueller Hinton Broth. The compound dilutions were mixed in 96-well assay plates in a 1:1 ratio with bacterial inoculum. The inoculum was prepared by suspension of a colony from an agar plate that was prepared the previous day. Bacteria were suspended in sterile saline and added to each assay plate to obtain a final concentration of 5×10^5 CFU/mL. The plates were incubated at 35° C. for 20 hours in ambient air.
(§4) These MIC assays were conducted following the same protocol as set forth in Example 110. As shown, substituted sisomicin derivatives with groups other than methyl at the 6′-position have improved activity against strains expressing the AAC6′-modifying enzymes.

[3] = test system: E. coli AECO040, AAC(6′)-I; test: MIC assay, aminoglycoside resistant strain; type: cell-based; parameters: unit not given beside the values; conditions: Table 3; E. coli AAC(6′)-I
Method: as §3, §4

[4] = test system: K. pneumoniae producing KPC (n = 25); test: MIC by microdilution, clinical isolates; type: cell-based; conditions: K. pneumoniae producing KPC (n = 25); for S (%), susceptible isolates: CLSI criteria, tigecycline US FDA criteria
Method: (§5) The in vitro activity of representative antibacterial aminoglycoside compounds against a collection of 102 K. pneumoniae clinical isolates collected from January 2006 to October 2007 at the University of Pittsburgh Medical Center, and three Cleveland institutions including University Hospitals Case Medical Center, the Cleveland Clinic, and the Louis Stokes Department of Veterans Affairs Medical Center was analyzed. The 102 K. pneumoniae isolates were selected based on a multidrug-resistant (MDR) phenotype (i.e., resistance to >3 antibiotic classes). Twenty-five isolates were KPC carbapenemase producing (KPC-Kp), and were part of a previous study where the β-lactamase background and clonality were characterized (see Endimiani, A., A. M. Hujer, F. Perez, C. R. Bethel, K. M. Hujer, J. Kroeger, M. Oethinger, D. L. Paterson, M. D. Adams, M. R. Jacobs, D. J. Diekema, G. S. Hall, S. G. Jenkins, L. B. Rice, F. C. Tenover, and R. A. Bonomo. 2009. Characterization of blaKPC-containing Klebsiella pneumoniae isolates detected in different institutions in the Eastern USA. J Antimicrob Chemother 63:427-37).
(§6) Minimum inhibitory concentrations (MICs) were performed by microdilution method using cation-adjusted Mueller-Hinton broth, according to the Clinical and Laboratory Standards Institute (CLSI) criteria (see CLSI. 2006. Methods for dilution antimicrobial susceptibility tests for bacteria that grow aerobically; approved standard-Seventh edition. Clinical and Laboratory Standard Institute, Wayne, Pa. CLSI document M7-A7). These MIC assays were conducted following the same protocol as set forth in Example 110. […] The following ATCC control strains were used: Escherichia coli ATCC 25922, Pseudomonas aeruginosa ATCC 27853, and K. pneumoniae ATCC 700603.

[5] = test system: multidrug-resistant (MDR) K. pneumoniae isolates (n = 102); test: MIC by microdilution, clinical isolates; type: cell-based; conditions: for S (%), susceptible isolates: CLSI criteria, tigecycline US FDA criteria
Method: as §5, §6

[6] = test system: P. aeruginosa ATCC 27853 (APAE001); test: MIC assay, CLSI broth microdilution; type: cell-based; conditions: Pseudomonas aeruginosa
Method in brief: as §2

Row | Structure (SMILES) | ED50/MIC E. Coli (E. coli ATCC 25922) | ED50/MIC P. aeruginosa (P. aeruginosa ATCC 27853) | MIC AECO001 [1] | MIC AACA005 [2] | MIC AECO040 [3] | further results
1 | CN[C@@H]1[C@@H](O)[C@@H](O[C@@H]2[C@@H](O)[C@H](O[C@H]3OC(CNCC(O)CN)=CC[C@H]3N)[C@@H](N)C[C@H]2NC(=O)[C@@H](O)CN)OC[C@]1(C)O (stereo partly drawn) [Example 22, 6′-(3-Amino-2-hydroxy-propyl)-1-(3-amino-2(S)-hydroxy-propionyl)-sisomicin] | 1 | 8 |  |  |  | 
2 | CN[C@@H]1[C@@H](O)[C@@H](O[C@@H]2[C@@H](O)[C@H](O[C@H]3OC(CN)=CC[C@H]3N)[C@@H](N)C[C@H]2N)OC[C@]1(C)O [Sisomicin] |  |  | 0.5 | 32 | 32 | 
3 | CN[C@@H]1[C@@H](O)[C@@H](O[C@@H]2[C@@H](O)[C@H](O[C@H]3OC(CN)=CC[C@H]3NC3CNC3)[C@@H](N)C[C@H]2NC(=O)[C@@H](O)CCN)OC[C@]1(C)O [Example 96, 2′-(Azetidin-3-yl)-1-(4-amino-2(S)-hydroxy-butyryl)-sisomicin] | <1 | 3 |  |  |  | 
4 | NCC[C@H](O)C(=O)N[C@@H]1C[C@H](N)[C@@H](O[C@H]2O[C@H](CN)[C@@H](O)[C@H](O)[C@H]2O)[C@H](O)[C@H]1O[C@H]1O[C@H](CO)[C@@H](O)[C@H](N)[C@H]1O [Amikacin, amikacin] | 1.5 | 13 |  |  |  | S (%), susceptible isolates [4]: 48.0%; S (%), susceptible isolates ([4]; listed as amikacin): 48%; MIC50 ([4]; Klebsiella pneumoniae, read-out: MIC50): 32 µg/mL (≈ 54.6 µM); MIC90 ([4]; Klebsiella pneumoniae, read-out: MIC90): 32 µg/mL (≈ 54.6 µM); MIC50 ([5]; Klebsiella pneumoniae, Total MDR K. pneumoniae isolates (n = 102), read-out: MIC50): 2 µg/mL (≈ 3.42 µM); MIC90 ([5]; Klebsiella pneumoniae, Total MDR K. pneumoniae isolates (n = 102), read-out: MIC90): 32 µg/mL (≈ 54.6 µM); isolates fully resistant (MICs of 64 μg/ml) ([5]; MDR K. pneumoniae isolates (n = 102)): five; S (%), susceptible isolates ([5]; Total MDR K. pneumoniae isolates (n = 102)): 78.4%; S (%), susceptible isolates ([5]; Total MDR K. pneumoniae isolates (n = 102), listed as amikacin): 78%
5 | CN[C@@H]1[C@@H](O)[C@@H](O[C@@H]2[C@@H](O)[C@H](O[C@H]3OC(CNCCO)=CC[C@H]3N)[C@@H](N)C[C@H]2NC(=O)[C@@H](O)CN)OC[C@]1(C)O [Example 16, 6′-(2-Hydroxy-ethyl)-1-(3-amino-2(S)-hydroxy-propionyl)-sisomicin] | 1 | 3 |  |  |  | 
6 | CN[C@@H]1[C@@H](O)[C@@H](O[C@@H]2[C@@H](O)[C@H](O[C@H]3OC(CNCCCN)=CC[C@H]3N)[C@@H](N)C[C@H]2NC(=O)[C@@H](O)CN)OC[C@]1(C)O [Example 17, 6′-(3-Amino-propyl)-1-(3-amino-2(S)-hydroxy-propionyl)-sisomicin] | 1 | 5 |  |  |  | MIC ([6]; Table 1, APAE001 is ATCC27853, read-out: MIC APAE001): 1 to 16 µg/mL (≈ 1.69 to 27 µM)
7 | CN[C@@H]1C(O)[C@@H](O[C@@H]2[C@@H](O)[C@H](OC3OC(CN)=CC[C@H]3N)[C@@H](N)C[C@H]2NC(=O)C2(O)CNC2)OC[C@]1(C)O (stereo partly drawn) [Mono-substituted Compound 7] |  |  | 1 | 32 | 4 | 
8 | CNCC1=CC[C@@H](N)[C@@H](O[C@H]2C(O)[C@@H](O[C@H]3OC[C@](C)(O)[C@H](NC)[C@H]3O)[C@H](N)C[C@@H]2N)O1 (stereo partly drawn) [Mono-substituted Compound 1] |  |  | 1 | 2 | >64 | 
9 | CN[C@@H]1[C@@H](O)[C@@H](O[C@@H]2C(O)[C@H](O[C@H]3OC(CNCC4CC4)=CC[C@H]3N)[C@@H](N)C[C@H]2N)OC[C@]1(C)O (stereo partly drawn) [Mono-substituted Compound 2] |  |  | 1 | 4 | 1 | 
10 | CN[C@@H]1[C@@H](O)[C@@H](O[C@@H]2[C@@H](O)[C@H](O[C@H]3OC(CNCCCN)=CC[C@H]3N)[C@@H](N)C[C@H]2NC(=O)C2(O)CNC2)OC[C@]1(C)O [Example 57] | 2 | 14 |  |  |  | 
11 | CN[C@@H]1[C@@H](O)[C@@H](O[C@@H]2[C@@H](O)[C@H](O[C@H]3OC(CN)=CC[C@H]3NC(=N)N)[C@@H](N)C[C@H]2NC(=O)[C@@H](O)CCN)OC[C@]1(C)O [Example 103, 2′-Guanidinium-1-(4-amino-2(S)-hydroxy-butyryl)-sisomicin] | 2 | 6 |  |  |  | 
12 | CN[C@@H]1C(O)[C@@H](O[C@@H]2[C@@H](O)[C@H](OC3OC(CN)=CC[C@H]3N)[C@@H](N)C[C@H]2NC(=O)[C@@H](O)CN)OC[C@]1(C)O (stereo partly drawn) [Mono-substituted Compound 5] |  |  | 0.5 | 32 | 8 | 
13 | CN[C@@H]1[C@@H](O)[C@@H](O[C@@H]2C(O)[C@H](O[C@H]3OC(CNCC4CCNCC4)=CC[C@H]3N)[C@@H](N)C[C@H]2N)OC[C@]1(C)O (stereo partly drawn) [Mono-substituted Compound 3] |  |  | 0.5 | 0.5 | 0.25 | 
14 | CN[C@@H]1[C@@H](O)[C@@H](O[C@@H]2C(O)[C@H](O[C@H]3OC(CNCCCN)=CC[C@H]3N)[C@@H](N)C[C@H]2N)OC[C@]1(C)O (stereo partly drawn) [Mono-substituted Compound 4] |  |  | 2 | 1 | 16 | 
15 | CN[C@@H]1[C@@H](O)[C@@H](O[C@@H]2[C@@H](O)[C@H](O[C@H]3OC(CNCC4CCNCC4)=CC[C@H]3N)[C@@H](N)C[C@H]2NC(=O)[C@@H](O)CN)OC[C@]1(C)O [Example 15, 6′-(Methyl-piperidin-4-yl)-1-(3-amino-2(S)-hydroxy-propionyl)-sisomicin] | <1 | 1 |  |  |  | MIC ([6]; ATCC27853, read-out: MIC APAE001): 1 to 16 µg/mL (≈ 1.58 to 25.3 µM)
16 | CN[C@@H]1C(O)[C@@H](O[C@@H]2[C@@H](O)[C@H](OC3OC(CN)=CC[C@H]3N)[C@@H](N)C[C@H]2NC(=O)[C@@H](O)CCN)OC[C@]1(C)O (stereo partly drawn) [Mono-substituted Compound 6] |  |  | 0.5 | 16 | 4 | 
